# In patent publication US20180258100A1, “RAPAMYCIN ANALOGS SHOWING IMPROVED mTORC1 SPECIFICITY” (priority 2015, published 2018):
# Tests used:
# [1] = target: T1, mTORC1 (Homo sapiens, UniProt P42345+P62942); assay: Western blot of PC3 cells, 24 h at 100 nM, comparison with commercial rapalogs, mTORC1 (p-S6K); format: cell-based
# T1 construct: endogenous in cells; host or cells: PC3 cells
# Procedure: (§1) PC3 cells were maintained in F12K media supplemented with 10% FBS, 1% Penicillin/Streptomycin, and 2 mM L-Glutamine and cultured at 37° C. Cells were treated with 100 nM Rapamycin, Temsirolimus, Everolimus, and rapalog compounds 390, 394, 824, 384 or 405 for 24 h and harvested in RIPA buffer (300 mM NaCl, 1.0% NP-40, 0.5% sodium deoxycholate, 0.1% SDS, 50 mM Tris pH 8.0. Protein concentrations were determined using the DC protein assay (Biorad).
# (§2) Equal amounts of protein were resolved by SDS-PAGE and transferred to nitrocellulose membrane using the Invitrogen Nu-Page system. The membranes were blocked for 1 h in 5% milk and incubated overnight in the appropriate antibodies. The following day, blots were washed 3 times in TBST, incubated for 2 h with secondary antibodies (donkey anti rabbit hrp conjugated), and finally washed an additional 3 times in TBST. ECL Prime (Amersham) was used to detect the proteins of interest and blots were quantified using ImageJ software.
# [2] = target: T2, mTORC2 (Homo sapiens, UniProt P42345+P62942); assay: Western blot of PC3 cells, 24 h at 100 nM, comparison with commercial rapalogs, mTORC2 (p-Akt); format: cell-based; conditions: PC-3, read-out: mTORC2 (p-Akt) activity, % of control
# T2 construct: endogenous in cells; host or cells: PC3 cells
# Procedure: as §1, §2
# [3] = Insulin challenge response; format: in vivo, female C57BL/6J mice; conditions: 0.75 IU/kg insulin after 2 weeks; rapamycin 8 mg/kg, compound 390 12 mg/kg i.p. every other day
# Procedure: FIG. 10. Response to insulin challenge following administration of 0.75 IU/kg insulin at t=2 weeks following the initiation of the intraperitoneal administrations of 8 mg/kg rapamycin, 12 mg/kg compound 390 or vehicle control every other day in female mice (N=5).
# (§3) 10-week old female C57BL/6J mice were given intraperitoneal injections of 8 mg/kg rapamycin (LC laboratories), 12 mg/kg compound 390 or vehicle every other day for three weeks (N=5 mice/group), such as to mimic chronic exposure conditions. 24 hours after the last injection, tissues were dissected from the mice and immediately frozen in liquid nitrogen. The tissues were homogenized using the Omni TH homogenizer (Omni International) on ice in RIPA buffer and then centrifuged at 13,000 rpm for 15 minutes at 4° C. The supernatants were collected and protein concentration was determined using the DC protein assay (Biorad).
# [4] = Steady state glucose levels after one week of i.p. dosing; format: in vivo, female C57BL/6J mice; conditions: 8 mg/kg i.p. every other day
# Procedure: as §3
# Steady state glucose levels were determined after one week from study initiation using a Bayer Contour blood glucose meter and test strips from small blood samples, which were withdrawn from a tail vein nick. At the end of the second week, the animals were challenged by administration of 2 mg/kg glucose; glucose levels were determined for two hours following the challenge at 30 min intervals.
# [5] = Plasma lipid levels after chronic i.p. dosing; format: in vivo, female C57BL/6J mice; conditions: rapamycin 8 mg/kg, compound 390 12 mg/kg i.p. every other day; versus vehicle
# Procedure: as §3
# Plasma lipid levels were determined at the end of the three-week exposure. Free fatty acids in the serum were measured by the HR Series NEFA-HR(2) (Wako Diagnostics, Richmond, Va.). Triglycerides and cholesterol in serum were measured by Triglycerides Liquicolor Test and Cholesterol Liquicolor Test (Stanbio laboratory, Boerne, Tex.), respectively.
# [6] = Glucose challenge response; format: in vivo, female C57BL/6J mice; conditions: 2 mg/kg glucose after 1 week; rapamycin 8 mg/kg, compound 390 12 mg/kg i.p. every other day
# Procedure: as §3
# Steady state glucose levels were determined after one week from study initiation using a Bayer Contour blood glucose meter and test strips from small blood samples, which were withdrawn from a tail vein nick. […]
# [7] = Fat mass by EchoMRI body composition after four weeks; format: in vivo, male C57BL/6J mice; conditions: 4 weeks of every other day administration; rapamycin 8 mg/kg, compound 390 12 mg/kg; versus vehicle
# Procedure: (§4) Fortyfive C57BL/6J male mice, housed three per cage, were weighed and their body composition was measured with an EchoMRI 3-in-1 system. Cages were sorted into three groups—vehicle, rapamycin, and compound 390—such that the average weight was similar for all three groups. Mice received every-other-day injections of either vehicle, rapamycin (8 mg/kg), or compound 390 (12 mg/kg). A glucose tolerance test was performed after 2 weeks (morning after the 8th injection). A pyruvate tolerance test was performed after 3 weeks. Glucose stimulated insulin secretion assay was performed after 4 weeks and additional blood was collected for whole blood analysis. Body composition was measured on day −2 and day 31.
# [8] = Glucose tolerance test after 2 weeks of chronic dosing; format: in vivo, male C57BL/6J mice; conditions: rapamycin 8 mg/kg, compound 390 12 mg/kg every other day, male mice
# Procedure: as §4, with “Cages were sorted into three groups—vehicle, rapamycin, and compound 390—such that the average weight was similar for all three groups.” left out
# Mice were fasted overnight for 16 hours and then injected with either glucose (1 g/kg) or pyruvate (2 g/kg) intraperitoneally. For glucose and pyruvate tolerance tests, small blood samples were taken from a tail vein nick at time intervals and read using a Bayer Contour blood glucose meter and test strips. For glucose-stimulated insulin secretion, blood glucose levels were read using a glucometer and then 50 μL of blood was collected into a heparinized tube immediately prior to and 15 minutes following glucose administration. Insulin levels were determined using a Mouse Insulin ELISA kit (Crystal Chem).
# T2 sequence (P62942 2-108 limits assumed, other chains not shown): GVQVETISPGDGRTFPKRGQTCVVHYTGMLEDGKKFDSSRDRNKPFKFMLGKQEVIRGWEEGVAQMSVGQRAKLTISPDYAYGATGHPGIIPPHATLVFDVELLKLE
mTORC1 (p-S6K) inhibition [1],remaining activity at 0.1 µM [2] [%],glucose steady state level [4] [mg/dL],increase of glucose steady state level from baseline [4],increase of glucose steady state level versus vehicle-receiving animals [4] [fold],Compound,glucose response after insulin challenge (insulin resistance) [3],plasma free fatty acids [5],glucose response after glucose challenge (glucose intolerance) [6],fat mass (adiposity) [7],glucose tolerance test ([8]; after 2 weeks),fasting hyperglycemia ([8]; chronic dosing)
performed identically to rapamycin,~5,–,–,–,CO[C@H]1C[C@@H]2CC[C@@H](C)[C@@](O)(O2)C(=O)C(=O)N2CCCC[C@H]2C(=O)O[C@H]([C@H](C)C[C@@H]2CC[C@@H](OCCO)[C@H](OC)C2)CC(=O)[C@H](C)/C=C(\C)[C@@H](O)[C@@H](OC)C(=O)[C@H](C)C[C@H](C)/C=C/C=C/C=C/1C [Everolimus],–,–,–,–,–,–
–,~5,~75,approx. 55%,3,CO[C@H]1C[C@@H]2CC[C@@H](C)[C@@](O)(O2)C(=O)C(=O)N2CCCC[C@H]2C(=O)O[C@H]([C@H](C)C[C@@H]2CC[C@@H](O)[C@H](OC)C2)CC(=O)[C@H](C)/C=C(\C)[C@@H](O)[C@@H](OC)C(=O)[C@H](C)C[C@H](C)/C=C/C=C/C=C/1C [Rapamycin],deviates significantly from the response observed with the control animals,substantial and statistically significant increase,deviates significantly from the response observed with the control animals,statistically significant increase of fat mass,impaired glucose and pyruvate tolerance tests,induced
performed identically to rapamycin,~5,–,–,–,CO[C@H]1C[C@@H]2CC[C@@H](C)[C@@](O)(O2)C(=O)C(=O)N2CCCC[C@H]2C(=O)O[C@H]([C@H](C)C[C@@H]2CC[C@@H](OC(=O)C(C)(CO)CO)[C@H](OC)C2)CC(=O)[C@H](C)/C=C(\C)[C@@H](O)[C@@H](OC)C(=O)[C@H](C)C[C@H](C)/C=C/C=C/C=C/1C [Temsirolimus],–,–,–,–,–,–
